Laboratory results: ChEMBL document CHEMBL2424622, “Development of amino-pyrimidine inhibitors of c-Jun N-terminal kinase (JNK): kinase profiling guided optimization of a 1,2,3-benzotriazole lead” (Bioorg Med Chem Lett, 2013)

What was measured:
[1] = target: Mitogen-activated protein kinase kinase kinase kinase 1 (Homo sapiens) (UniProt Q92918); test: Competitive binding affinity to MAP4K1 (unknown origin) at 10 uM in presence of ATP relative to control
[2] = target: RAC-beta serine/threonine-protein kinase (Homo sapiens) (UniProt P31751); test: Competitive binding affinity to AKT2 (unknown origin) at 10 uM in presence of ATP relative to control
[3] = test system: Tyrosine-protein kinase ABL1 (Homo sapiens), P00519 [Y253F]; test: Competitive binding affinity to ABL1 Y253F mutant (unknown origin) at 10 uM in presence of ATP relative to control
[4] = target: Serine/threonine-protein kinase PLK3 (Homo sapiens) (UniProt Q9H4B4); test: Competitive binding affinity to PLK3 (unknown origin) at 10 uM in presence of ATP relative to control
[5] = target: T1, Dual specificity mitogen-activated protein kinase kinase 4 (Homo sapiens) (UniProt P45985); test: Competitive binding affinity to MEK4 (unknown origin) at 10 uM in presence of ATP relative to control
T1 sequence (whole entry): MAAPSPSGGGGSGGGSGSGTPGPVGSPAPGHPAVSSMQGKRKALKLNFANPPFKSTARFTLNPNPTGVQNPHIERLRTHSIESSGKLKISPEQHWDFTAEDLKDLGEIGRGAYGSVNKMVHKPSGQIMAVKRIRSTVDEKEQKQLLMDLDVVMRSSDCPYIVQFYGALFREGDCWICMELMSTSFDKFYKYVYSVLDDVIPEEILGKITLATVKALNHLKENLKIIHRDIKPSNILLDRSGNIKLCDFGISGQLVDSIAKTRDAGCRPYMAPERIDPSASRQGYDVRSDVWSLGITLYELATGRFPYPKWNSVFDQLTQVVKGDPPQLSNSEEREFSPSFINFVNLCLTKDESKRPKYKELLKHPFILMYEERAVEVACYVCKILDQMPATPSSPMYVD

[6] = target: Mitogen-activated protein kinase 6 (Homo sapiens, UniProt Q16659); test: Competitive binding affinity to ERK3 (unknown origin) at 10 uM in presence of ATP relative to control
[7] = target: T2, Bone morphogenetic protein receptor type-2 (Homo sapiens) (UniProt Q13873); test: Competitive binding affinity to BMPR2 (unknown origin) at 10 uM in presence of ATP relative to control
T2 sequence (whole entry): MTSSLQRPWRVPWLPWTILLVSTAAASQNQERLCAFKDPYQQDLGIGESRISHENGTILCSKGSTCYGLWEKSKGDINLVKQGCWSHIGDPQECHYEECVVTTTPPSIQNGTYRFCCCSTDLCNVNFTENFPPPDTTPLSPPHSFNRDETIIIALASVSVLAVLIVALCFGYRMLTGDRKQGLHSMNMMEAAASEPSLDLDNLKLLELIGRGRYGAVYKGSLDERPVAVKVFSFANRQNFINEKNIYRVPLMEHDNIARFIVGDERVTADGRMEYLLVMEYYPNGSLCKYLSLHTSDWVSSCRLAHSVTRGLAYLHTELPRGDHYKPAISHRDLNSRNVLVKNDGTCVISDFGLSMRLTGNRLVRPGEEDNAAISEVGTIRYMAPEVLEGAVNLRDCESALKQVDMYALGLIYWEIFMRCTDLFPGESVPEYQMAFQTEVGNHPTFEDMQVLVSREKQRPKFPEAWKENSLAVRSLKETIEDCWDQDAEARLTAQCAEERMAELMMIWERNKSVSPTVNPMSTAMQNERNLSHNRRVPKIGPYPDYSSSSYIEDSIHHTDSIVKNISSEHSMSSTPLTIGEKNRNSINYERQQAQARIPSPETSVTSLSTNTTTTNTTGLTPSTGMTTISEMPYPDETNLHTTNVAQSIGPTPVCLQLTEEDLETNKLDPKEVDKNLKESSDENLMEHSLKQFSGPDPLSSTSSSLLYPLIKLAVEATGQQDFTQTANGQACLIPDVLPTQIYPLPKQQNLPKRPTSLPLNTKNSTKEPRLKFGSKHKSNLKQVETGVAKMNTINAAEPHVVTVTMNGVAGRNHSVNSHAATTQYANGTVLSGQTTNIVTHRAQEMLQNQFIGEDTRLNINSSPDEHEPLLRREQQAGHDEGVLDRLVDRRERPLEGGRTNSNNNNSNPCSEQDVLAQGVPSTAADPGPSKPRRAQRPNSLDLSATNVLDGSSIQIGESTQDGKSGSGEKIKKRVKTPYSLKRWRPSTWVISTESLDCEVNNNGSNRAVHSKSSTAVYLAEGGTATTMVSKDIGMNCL

[8] = target: Tyrosine-protein kinase Srms (Homo sapiens) (UniProt Q9H3Y6); test: Competitive binding affinity to SRMS (unknown origin) at 10 uM in presence of ATP relative to control
[9] = target: T3, Receptor-interacting serine/threonine-protein kinase 1 (Homo sapiens) (UniProt Q13546); test: Competitive binding affinity to RIPK1 (unknown origin) at 10 uM in presence of ATP relative to control
T3 sequence (whole entry): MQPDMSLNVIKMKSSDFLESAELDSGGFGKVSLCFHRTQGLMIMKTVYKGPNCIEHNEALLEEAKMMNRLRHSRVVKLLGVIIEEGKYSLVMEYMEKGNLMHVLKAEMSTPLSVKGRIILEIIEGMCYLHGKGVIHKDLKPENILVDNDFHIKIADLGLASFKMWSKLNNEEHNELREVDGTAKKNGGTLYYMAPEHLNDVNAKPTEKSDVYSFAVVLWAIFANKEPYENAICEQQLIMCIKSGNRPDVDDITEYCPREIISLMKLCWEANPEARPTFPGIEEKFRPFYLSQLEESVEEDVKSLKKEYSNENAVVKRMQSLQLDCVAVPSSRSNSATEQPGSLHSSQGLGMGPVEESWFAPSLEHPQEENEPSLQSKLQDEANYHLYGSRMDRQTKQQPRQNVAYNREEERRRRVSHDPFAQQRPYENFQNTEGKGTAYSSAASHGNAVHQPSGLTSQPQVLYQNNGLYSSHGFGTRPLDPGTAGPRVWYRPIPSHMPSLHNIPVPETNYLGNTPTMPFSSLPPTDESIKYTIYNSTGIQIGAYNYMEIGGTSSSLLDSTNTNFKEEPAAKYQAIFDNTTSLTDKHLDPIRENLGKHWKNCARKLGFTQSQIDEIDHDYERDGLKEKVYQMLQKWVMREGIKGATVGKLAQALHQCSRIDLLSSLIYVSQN

[10] = target: Cyclin-dependent kinase 19 (Homo sapiens) (UniProt Q9BWU1); test: Competitive binding affinity to CDK19 (unknown origin) at 10 uM in presence of ATP relative to control
Cyclin-dependent kinase 19 (Homo sapiens), sequence (Q9BWU1 whole entry, looked up): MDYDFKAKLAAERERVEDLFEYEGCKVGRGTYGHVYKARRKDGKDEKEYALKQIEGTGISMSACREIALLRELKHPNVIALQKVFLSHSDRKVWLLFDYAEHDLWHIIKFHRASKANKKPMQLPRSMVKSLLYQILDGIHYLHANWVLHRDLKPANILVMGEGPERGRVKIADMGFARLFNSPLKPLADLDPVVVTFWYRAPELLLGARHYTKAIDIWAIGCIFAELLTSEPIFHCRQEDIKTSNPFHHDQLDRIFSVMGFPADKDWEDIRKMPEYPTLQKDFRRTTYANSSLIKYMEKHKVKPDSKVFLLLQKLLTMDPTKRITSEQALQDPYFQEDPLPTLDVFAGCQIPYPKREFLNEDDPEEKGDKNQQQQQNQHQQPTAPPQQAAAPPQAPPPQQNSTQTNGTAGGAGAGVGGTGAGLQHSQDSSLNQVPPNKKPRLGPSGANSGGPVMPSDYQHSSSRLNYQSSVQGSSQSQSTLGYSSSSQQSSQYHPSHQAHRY

Mitogen-activated protein kinase kinase kinase kinase 1 (Homo sapiens), sequence (Q92918 whole entry, looked up): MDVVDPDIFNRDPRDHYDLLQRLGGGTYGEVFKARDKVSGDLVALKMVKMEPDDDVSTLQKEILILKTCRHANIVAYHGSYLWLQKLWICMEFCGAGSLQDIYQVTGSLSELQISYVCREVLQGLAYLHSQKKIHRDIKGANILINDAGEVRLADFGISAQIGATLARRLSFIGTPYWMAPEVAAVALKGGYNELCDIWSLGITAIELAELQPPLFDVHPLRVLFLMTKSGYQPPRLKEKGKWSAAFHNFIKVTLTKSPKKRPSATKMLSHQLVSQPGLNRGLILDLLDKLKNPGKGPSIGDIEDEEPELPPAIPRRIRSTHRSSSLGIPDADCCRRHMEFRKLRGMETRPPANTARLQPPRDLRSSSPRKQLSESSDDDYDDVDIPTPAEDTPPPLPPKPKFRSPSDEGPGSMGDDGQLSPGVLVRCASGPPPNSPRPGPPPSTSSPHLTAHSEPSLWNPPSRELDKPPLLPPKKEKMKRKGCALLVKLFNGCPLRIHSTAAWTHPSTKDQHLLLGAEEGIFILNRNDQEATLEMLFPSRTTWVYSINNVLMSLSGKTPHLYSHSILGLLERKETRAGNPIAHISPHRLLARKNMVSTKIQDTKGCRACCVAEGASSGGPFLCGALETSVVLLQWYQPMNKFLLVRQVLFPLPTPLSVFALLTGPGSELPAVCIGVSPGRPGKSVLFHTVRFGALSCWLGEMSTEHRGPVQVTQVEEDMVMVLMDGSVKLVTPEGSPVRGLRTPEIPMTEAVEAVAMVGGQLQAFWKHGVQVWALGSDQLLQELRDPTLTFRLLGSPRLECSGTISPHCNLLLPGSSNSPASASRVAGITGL
Serine/threonine-protein kinase PLK3 (Homo sapiens), sequence (Q9H4B4 whole entry, looked up): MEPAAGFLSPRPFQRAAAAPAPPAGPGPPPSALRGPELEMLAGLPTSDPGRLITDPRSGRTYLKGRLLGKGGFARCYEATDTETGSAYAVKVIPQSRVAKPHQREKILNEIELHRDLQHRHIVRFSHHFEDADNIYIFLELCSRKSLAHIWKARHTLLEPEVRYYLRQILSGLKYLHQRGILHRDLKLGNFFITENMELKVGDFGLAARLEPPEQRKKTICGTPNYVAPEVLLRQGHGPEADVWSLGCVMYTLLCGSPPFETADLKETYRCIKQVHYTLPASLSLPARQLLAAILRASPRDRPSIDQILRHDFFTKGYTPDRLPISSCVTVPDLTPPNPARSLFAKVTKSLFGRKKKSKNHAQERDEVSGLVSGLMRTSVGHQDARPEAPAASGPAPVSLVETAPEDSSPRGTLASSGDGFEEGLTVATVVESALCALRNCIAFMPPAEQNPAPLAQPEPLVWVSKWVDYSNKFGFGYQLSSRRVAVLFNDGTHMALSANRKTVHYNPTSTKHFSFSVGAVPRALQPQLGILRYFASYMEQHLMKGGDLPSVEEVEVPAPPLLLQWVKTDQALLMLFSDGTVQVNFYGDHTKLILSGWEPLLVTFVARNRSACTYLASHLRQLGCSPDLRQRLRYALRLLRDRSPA
RAC-beta serine/threonine-protein kinase (Homo sapiens), sequence (P31751 whole entry): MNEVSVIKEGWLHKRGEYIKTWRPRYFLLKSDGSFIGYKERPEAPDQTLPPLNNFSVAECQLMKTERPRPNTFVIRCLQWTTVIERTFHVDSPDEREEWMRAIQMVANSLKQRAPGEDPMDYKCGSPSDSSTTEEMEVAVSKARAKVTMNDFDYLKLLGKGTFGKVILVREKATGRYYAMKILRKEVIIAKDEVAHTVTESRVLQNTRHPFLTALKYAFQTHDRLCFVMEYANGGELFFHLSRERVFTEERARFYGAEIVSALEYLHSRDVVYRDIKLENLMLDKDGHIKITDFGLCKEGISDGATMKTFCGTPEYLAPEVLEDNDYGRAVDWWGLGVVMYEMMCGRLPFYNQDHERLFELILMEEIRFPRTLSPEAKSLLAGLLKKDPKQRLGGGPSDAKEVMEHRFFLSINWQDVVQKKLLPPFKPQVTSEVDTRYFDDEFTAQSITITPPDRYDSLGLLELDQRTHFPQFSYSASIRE
Tyrosine-protein kinase Srms (Homo sapiens), sequence (Q9H3Y6 whole entry): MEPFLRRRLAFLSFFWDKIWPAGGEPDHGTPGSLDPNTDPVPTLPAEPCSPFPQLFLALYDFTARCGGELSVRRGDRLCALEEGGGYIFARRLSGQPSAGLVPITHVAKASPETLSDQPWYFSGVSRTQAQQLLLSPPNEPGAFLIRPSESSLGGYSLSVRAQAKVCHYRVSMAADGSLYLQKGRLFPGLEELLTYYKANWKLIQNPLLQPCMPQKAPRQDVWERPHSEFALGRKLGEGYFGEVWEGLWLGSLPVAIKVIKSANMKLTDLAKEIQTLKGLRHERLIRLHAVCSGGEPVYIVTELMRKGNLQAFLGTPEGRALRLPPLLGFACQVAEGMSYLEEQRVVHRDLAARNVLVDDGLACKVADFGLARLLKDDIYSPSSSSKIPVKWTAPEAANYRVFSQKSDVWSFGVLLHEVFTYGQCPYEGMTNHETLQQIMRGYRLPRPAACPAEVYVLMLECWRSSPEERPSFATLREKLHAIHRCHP
Mitogen-activated protein kinase 6, sequence (Q16659 whole entry): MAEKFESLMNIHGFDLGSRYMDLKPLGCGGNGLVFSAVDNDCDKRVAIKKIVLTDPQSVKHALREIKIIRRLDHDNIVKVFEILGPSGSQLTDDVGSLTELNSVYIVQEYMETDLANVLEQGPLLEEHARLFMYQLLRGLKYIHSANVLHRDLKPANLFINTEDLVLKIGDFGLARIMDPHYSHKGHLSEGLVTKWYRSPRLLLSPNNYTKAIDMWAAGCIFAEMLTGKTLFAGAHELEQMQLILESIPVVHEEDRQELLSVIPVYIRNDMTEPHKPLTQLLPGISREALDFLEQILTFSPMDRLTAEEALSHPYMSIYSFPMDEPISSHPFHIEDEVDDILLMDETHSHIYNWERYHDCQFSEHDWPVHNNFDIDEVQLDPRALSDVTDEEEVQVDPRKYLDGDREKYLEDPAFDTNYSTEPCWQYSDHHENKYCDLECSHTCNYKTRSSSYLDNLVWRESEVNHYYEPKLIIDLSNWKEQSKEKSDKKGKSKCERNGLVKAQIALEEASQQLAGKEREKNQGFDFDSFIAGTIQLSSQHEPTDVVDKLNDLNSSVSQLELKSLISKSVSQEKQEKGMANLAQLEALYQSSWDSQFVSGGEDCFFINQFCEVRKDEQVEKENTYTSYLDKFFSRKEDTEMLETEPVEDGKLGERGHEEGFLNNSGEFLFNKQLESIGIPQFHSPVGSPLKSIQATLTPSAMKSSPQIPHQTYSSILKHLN

Row | SMILES | inhibition [1] [%] | inhibition [2] [%] | inhibition [3] [%] | inhibition [4] [%] | inhibition [5] [%] | inhibition [6] [%] | inhibition [7] [%] | inhibition [8] [%] | inhibition [9] [%] | inhibition [10] [%]
1 | O[C@H]1CC[C@H](Nc2nccc(-c3n[nH]c4ccccc34)n2)CC1 | 97 | < 50 | < 50 | < 50 | – | – | – | – | – | –
2 | CS(=O)(=O)CCCOc1cccc2c1ccn2-c1ccnc(N[C@H]2CC[C@H](C(=O)N3CCC(O)CC3)CC2)n1 | – | – | – | – | > 85 | > 85 | – | – | – | –

Second part, the compound after the results:

Row | inhibition [1] [%] | inhibition [2] [%] | inhibition [3] [%] | inhibition [4] [%] | inhibition [5] [%] | inhibition [6] [%] | inhibition [7] [%] | inhibition [8] [%] | inhibition [9] [%] | inhibition [10] [%] | SMILES
3 | < 50 | < 50 | < 50 | < 50 | 97 | 99 | < 50 | < 50 | < 50 | 70 | O[C@H]1CC[C@H](Nc2nccc(-n3ccc4ccccc43)n2)CC1
4 | < 50 | < 50 | 66 | 68 | 99 | 100 | 85 | < 50 | < 50 | 82 | O[C@H]1CC[C@H](Nc2nccc(-n3nnc4ccccc43)n2)CC1
5 | < 50 | < 50 | < 50 | < 50 | 99 | 100 | < 50 | < 50 | < 50 | < 50 | O[C@H]1CC[C@H](Nc2nccc(-n3ncc4ccccc43)n2)CC1
